According to ChEMBL document CHEMBL4800731, “Data for DCP probe JNJ-65355394” (2021):

Legend:
Settings in all cases: Compound concentration 10.0 uM
[1] = target: Beta-1 adrenergic receptor (Homo sapiens) (UniProt P08588)
[2] = target: 5-hydroxytryptamine receptor 1D (Homo sapiens) (UniProt P28221)
[3] = target: T1, Muscarinic acetylcholine receptor M2 (Homo sapiens) (UniProt P08172)
T1 sequence (whole entry): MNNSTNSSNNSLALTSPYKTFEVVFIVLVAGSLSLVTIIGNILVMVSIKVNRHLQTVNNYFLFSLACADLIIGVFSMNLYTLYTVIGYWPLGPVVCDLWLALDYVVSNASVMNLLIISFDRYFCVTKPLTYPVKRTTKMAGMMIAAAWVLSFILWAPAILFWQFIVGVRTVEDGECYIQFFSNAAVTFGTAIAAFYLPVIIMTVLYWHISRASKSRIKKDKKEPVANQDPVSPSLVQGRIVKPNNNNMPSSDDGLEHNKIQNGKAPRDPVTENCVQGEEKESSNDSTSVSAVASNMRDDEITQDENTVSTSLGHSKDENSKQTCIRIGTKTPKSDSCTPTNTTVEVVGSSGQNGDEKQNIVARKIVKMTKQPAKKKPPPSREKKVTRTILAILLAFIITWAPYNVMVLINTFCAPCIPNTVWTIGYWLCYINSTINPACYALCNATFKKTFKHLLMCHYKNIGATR

[4] = target: 5-hydroxytryptamine receptor 2C (Homo sapiens) (UniProt P28335)
[5] = target: T2, GABA-A receptor; anion channel (Rattus norvegicus) (UniProt O09028+P15431+P18506+P18508+P19969+P20236+P23574+P23576+P28471+P28473+P30191+P62813+P63079+P63138+Q91ZM7+Q9ES14)
[6] = target: 5-hydroxytryptamine receptor 5A (Homo sapiens) (UniProt P47898)
5-hydroxytryptamine receptor 5A (Homo sapiens), sequence (P47898 whole entry): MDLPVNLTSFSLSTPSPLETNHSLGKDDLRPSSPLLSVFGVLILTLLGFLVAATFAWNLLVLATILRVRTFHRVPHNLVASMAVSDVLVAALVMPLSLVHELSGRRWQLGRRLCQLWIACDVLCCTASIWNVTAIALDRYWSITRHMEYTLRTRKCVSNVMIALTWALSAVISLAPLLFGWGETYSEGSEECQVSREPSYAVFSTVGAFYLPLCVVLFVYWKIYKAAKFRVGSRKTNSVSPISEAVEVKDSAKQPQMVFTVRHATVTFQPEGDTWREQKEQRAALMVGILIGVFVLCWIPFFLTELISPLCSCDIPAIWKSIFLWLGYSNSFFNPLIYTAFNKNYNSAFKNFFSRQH

[7] = target: T3, 5-hydroxytryptamine receptor 1A (Homo sapiens) (UniProt P08908)
T3 sequence (whole entry): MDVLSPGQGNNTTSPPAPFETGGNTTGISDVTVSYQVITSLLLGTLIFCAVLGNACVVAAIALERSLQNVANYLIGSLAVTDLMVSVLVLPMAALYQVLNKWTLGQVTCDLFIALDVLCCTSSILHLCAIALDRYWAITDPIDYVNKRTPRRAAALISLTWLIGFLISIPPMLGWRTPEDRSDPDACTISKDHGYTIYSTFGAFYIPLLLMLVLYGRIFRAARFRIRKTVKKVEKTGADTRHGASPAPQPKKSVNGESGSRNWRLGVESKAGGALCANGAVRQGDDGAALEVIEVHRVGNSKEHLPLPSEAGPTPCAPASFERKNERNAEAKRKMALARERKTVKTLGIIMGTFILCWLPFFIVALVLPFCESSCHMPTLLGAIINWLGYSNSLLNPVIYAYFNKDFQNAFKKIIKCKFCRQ

[8] = target: D(2) dopamine receptor (Homo sapiens) (UniProt P14416)
D(2) dopamine receptor (Homo sapiens), sequence (P14416 whole entry): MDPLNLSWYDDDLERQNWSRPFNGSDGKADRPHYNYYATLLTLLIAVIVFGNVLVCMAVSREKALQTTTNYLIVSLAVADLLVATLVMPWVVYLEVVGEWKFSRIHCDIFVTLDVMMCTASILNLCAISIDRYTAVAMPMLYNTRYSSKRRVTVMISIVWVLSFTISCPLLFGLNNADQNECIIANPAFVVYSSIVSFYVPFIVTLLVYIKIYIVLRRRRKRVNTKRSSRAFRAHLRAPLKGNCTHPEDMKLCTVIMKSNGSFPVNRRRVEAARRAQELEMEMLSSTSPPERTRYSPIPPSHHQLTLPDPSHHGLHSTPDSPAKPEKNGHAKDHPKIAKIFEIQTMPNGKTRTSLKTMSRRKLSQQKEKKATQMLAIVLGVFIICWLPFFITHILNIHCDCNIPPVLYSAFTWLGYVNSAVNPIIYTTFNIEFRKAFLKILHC

[9] = target: 5-hydroxytryptamine receptor 2A (Homo sapiens) (UniProt P28223)
[10] = target: Sigma intracellular receptor 2 (Homo sapiens, UniProt Q5BJF2)
[11] = target: 5-hydroxytryptamine receptor 2B (Homo sapiens) (UniProt P41595)
5-hydroxytryptamine receptor 2B (Homo sapiens), sequence (P41595 whole entry): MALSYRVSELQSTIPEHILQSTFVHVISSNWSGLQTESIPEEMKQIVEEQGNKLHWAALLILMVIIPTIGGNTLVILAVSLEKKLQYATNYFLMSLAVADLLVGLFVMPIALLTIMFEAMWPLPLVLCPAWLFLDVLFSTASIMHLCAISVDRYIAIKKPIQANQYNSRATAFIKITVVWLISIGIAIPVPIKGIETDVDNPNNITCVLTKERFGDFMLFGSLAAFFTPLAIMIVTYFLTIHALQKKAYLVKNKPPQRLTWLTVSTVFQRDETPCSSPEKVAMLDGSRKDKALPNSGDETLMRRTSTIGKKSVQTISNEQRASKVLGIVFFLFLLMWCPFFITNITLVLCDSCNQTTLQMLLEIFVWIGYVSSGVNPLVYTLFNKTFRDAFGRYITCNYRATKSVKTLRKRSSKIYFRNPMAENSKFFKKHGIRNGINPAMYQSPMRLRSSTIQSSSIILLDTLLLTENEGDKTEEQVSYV

[12] = target: 5-hydroxytryptamine receptor 6 (Homo sapiens) (UniProt P50406)
5-hydroxytryptamine receptor 6 (Homo sapiens), sequence (P50406 whole entry): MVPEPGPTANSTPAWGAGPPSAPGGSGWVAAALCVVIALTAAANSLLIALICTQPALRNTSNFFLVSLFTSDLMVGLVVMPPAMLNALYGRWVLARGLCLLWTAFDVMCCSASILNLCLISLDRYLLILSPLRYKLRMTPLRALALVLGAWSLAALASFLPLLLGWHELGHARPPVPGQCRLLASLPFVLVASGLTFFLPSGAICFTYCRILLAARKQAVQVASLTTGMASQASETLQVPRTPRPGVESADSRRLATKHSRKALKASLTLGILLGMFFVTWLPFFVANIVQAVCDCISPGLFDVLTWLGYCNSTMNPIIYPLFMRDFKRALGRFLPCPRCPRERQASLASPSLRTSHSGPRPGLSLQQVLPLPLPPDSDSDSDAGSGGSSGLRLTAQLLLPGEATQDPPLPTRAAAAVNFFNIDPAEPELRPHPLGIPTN

[13] = target: T4, Muscarinic acetylcholine receptor M1 (Homo sapiens) (UniProt P11229)
T4 sequence (whole entry): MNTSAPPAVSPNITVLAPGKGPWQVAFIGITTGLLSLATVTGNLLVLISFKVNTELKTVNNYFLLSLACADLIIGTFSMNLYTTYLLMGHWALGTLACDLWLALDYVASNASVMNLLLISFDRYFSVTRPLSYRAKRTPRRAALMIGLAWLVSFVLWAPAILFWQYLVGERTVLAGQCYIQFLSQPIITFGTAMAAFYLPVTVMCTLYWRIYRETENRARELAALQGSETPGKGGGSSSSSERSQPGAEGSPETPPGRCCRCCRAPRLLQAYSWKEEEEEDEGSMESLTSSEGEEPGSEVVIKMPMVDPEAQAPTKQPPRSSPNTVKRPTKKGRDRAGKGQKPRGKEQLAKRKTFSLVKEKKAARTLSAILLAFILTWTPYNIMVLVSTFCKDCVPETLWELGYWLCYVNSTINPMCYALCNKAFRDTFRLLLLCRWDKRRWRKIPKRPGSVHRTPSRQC

[14] = target: Alpha-2C adrenergic receptor (Homo sapiens) (UniProt P18825)
[15] = target: Alpha-1D adrenergic receptor (Homo sapiens) (UniProt P25100)
[16] = target: Alpha-2A adrenergic receptor (Homo sapiens) (UniProt P08913)
[17] = target: Mu-type opioid receptor (Homo sapiens) (UniProt P35372)
Mu-type opioid receptor (Homo sapiens), sequence (P35372 whole entry): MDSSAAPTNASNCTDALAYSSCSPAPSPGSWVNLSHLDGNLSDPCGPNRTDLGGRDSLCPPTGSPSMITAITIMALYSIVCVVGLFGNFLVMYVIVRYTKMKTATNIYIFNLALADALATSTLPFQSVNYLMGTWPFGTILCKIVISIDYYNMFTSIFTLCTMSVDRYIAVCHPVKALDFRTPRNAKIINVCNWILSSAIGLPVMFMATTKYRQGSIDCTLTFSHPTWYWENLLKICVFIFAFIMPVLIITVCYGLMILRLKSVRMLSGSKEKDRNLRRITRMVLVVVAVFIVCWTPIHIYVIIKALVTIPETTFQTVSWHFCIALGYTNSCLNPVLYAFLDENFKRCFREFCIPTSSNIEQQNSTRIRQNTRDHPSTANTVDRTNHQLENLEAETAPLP

[18] = target: Sodium-dependent serotonin transporter (Homo sapiens, UniProt P31645)
Sodium-dependent serotonin transporter, sequence (P31645 whole entry, looked up): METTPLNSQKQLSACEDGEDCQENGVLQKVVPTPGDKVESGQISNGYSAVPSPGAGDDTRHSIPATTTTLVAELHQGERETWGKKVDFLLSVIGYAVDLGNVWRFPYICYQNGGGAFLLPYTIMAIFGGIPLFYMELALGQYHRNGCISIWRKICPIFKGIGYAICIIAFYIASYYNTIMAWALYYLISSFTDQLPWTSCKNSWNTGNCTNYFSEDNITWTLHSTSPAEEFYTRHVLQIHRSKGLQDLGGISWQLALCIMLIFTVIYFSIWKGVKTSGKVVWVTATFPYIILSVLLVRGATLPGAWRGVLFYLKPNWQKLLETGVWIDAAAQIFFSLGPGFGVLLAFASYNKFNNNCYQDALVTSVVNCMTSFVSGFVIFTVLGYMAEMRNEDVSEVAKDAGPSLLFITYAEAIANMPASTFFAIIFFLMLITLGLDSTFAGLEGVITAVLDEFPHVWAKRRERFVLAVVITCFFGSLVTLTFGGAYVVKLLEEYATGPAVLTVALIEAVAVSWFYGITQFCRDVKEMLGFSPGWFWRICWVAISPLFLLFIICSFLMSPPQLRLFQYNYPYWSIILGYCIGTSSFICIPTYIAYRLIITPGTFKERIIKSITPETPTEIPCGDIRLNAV

Rattus norvegicus = organism: Rattus norvegicus
[19] = target: Muscarinic acetylcholine receptor M4 (Homo sapiens) (UniProt P08173)
[20] = target: Sodium-dependent noradrenaline transporter (Homo sapiens) (UniProt P23975)
Sodium-dependent noradrenaline transporter (Homo sapiens), sequence (P23975 whole entry): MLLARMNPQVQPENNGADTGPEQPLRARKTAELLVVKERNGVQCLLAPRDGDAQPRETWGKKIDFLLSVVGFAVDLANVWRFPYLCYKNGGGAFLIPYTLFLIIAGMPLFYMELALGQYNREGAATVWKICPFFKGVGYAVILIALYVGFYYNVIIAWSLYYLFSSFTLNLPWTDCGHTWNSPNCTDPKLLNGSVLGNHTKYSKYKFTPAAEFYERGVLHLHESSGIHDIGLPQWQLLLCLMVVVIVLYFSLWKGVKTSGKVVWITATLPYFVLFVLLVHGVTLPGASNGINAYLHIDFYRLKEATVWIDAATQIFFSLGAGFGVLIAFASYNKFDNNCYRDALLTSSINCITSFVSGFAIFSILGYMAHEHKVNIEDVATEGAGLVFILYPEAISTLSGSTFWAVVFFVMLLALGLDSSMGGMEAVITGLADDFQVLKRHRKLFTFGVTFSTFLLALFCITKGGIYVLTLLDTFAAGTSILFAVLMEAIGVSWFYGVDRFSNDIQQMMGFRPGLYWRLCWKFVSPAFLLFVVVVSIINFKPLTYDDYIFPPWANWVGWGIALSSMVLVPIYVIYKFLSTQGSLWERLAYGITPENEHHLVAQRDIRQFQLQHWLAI

[21] = target: D(4) dopamine receptor (Homo sapiens) (UniProt P21917)
[22] = target: 5-hydroxytryptamine receptor 7 (Homo sapiens) (UniProt P34969)
5-hydroxytryptamine receptor 7 (Homo sapiens), sequence (P34969 whole entry): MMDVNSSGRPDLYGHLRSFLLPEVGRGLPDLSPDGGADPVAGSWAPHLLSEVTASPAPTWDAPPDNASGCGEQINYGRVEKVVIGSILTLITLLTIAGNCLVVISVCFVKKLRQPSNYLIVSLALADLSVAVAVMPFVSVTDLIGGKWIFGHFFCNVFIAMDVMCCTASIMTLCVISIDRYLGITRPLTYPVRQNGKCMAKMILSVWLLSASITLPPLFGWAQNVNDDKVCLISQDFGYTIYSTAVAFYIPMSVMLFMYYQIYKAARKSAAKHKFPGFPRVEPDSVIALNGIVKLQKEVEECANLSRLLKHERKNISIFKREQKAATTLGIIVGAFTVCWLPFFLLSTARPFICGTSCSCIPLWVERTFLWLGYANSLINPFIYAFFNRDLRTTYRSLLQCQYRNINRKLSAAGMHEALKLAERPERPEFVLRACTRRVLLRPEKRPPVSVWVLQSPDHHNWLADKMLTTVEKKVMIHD

[23] = target: Muscarinic acetylcholine receptor M3 (Homo sapiens) (UniProt P20309)
Muscarinic acetylcholine receptor M3 (Homo sapiens), sequence (P20309 whole entry, looked up): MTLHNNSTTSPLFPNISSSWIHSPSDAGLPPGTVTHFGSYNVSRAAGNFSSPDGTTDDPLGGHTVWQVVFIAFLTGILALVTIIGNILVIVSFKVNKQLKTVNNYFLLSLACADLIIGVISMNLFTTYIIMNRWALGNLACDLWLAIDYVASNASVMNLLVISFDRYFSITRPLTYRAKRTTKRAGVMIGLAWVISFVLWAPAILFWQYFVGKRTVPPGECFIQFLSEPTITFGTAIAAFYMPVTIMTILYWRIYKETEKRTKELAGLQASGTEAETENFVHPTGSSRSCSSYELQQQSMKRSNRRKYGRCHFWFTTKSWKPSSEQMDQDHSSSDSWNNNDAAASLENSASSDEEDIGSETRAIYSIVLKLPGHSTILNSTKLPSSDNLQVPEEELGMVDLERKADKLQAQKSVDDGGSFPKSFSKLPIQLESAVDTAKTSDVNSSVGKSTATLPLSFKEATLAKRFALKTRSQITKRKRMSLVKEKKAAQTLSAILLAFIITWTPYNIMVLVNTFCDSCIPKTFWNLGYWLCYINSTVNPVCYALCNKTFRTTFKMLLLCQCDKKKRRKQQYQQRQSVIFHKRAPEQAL

[24] = target: Alpha-2B adrenergic receptor (Homo sapiens) (UniProt P18089)
[25] = target: T2, GABA-A receptor; anion channel (Rattus norvegicus); remark: listed apart in the source

Beta-1 adrenergic receptor (Homo sapiens), sequence (P08588 whole entry, looked up): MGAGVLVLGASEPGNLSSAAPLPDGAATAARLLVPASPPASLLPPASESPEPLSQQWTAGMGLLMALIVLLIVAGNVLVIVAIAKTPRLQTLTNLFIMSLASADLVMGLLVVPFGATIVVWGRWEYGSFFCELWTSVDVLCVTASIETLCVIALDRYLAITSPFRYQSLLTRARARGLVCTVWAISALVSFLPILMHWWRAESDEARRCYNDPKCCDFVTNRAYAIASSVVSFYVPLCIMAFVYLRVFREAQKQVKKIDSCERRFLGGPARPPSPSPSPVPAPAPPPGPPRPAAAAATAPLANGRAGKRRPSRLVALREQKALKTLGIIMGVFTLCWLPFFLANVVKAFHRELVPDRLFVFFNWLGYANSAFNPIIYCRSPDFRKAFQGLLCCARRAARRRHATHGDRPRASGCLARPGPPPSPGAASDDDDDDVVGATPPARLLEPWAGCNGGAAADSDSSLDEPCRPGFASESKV

Row | SMILES | inhibition [1] [%] | inhibition [2] [%] | inhibition [3] [%] | inhibition [4] [%] | inhibition [5] [%] | inhibition [6] [%] | inhibition [7] [%] | inhibition [8] [%] | inhibition [9] [%] | inhibition [10] [%] | inhibition [11] [%] | inhibition [12] [%] | inhibition [13] [%] | inhibition [14] [%] | inhibition [15] [%] | inhibition [16] [%] | inhibition [17] [%] | inhibition [18] [%] | inhibition (Rattus norvegicus) [%] | inhibition [19] [%] | further results
1 | CC(=O)Nc1ncc(CN2CCC[C@H](Cc3cc(C)nc(C)c3)C2)s1 [JNJ-65355394] | 3.29 | 11.6 | 9.54 | 15.2 | 8.07 | 18.7 | 22.2 | 0.63 | -2.94 | 19 | 6.7 | 14.3 | 6.18 | 31.9 | 8.3 | 8.68 | 12.8 | 7.21 | 5.69 | -5.53 | inhibition [20]: 12.7%; inhibition [21]: 3.53%; inhibition [22]: 9.6%; inhibition [23]: 8.4%; inhibition [24]: 44.8%; inhibition [25]: -8.39%
2 | CC(=O)Nc1nc(CN2CCC[C@H](Cc3cc(C)nc(C)c3)C2)cs1 [JNJ-73924149] | 4.41 | 14.5 | 8.65 | 16.3 | 43.5 | 17.8 | 12.3 | 8.04 | 6.45 | 59.6 | 17.9 | 25.6 | 25.4 | 36.5 | 7.45 | 31.7 | 27.3 | 52.3 | 11.2 | 8.78 | inhibition [20]: 17.8%; inhibition [21]: 6.82%; inhibition [22]: 2.58%; inhibition [23]: -9.98%; inhibition [24]: 59.1%; inhibition [25]: 43.6%
